The values below are quoted from earlier work in patent publication US11865206B2 (priority 2018, dated 2024).

Assay in data set [1]: not given
The source holds these as a separate data set.

Where two headings read alike, the source gives them in different places.

As to `O=NN(CCCl)C(=O)NCCCl` [Carmustine, 1,3-bis(2-chloroethyl)-1-nitrosourea], the “Crossing of the blood brain barrier” value (following IV infusion) was “can cross the blood brain barrier”. Where the note is “oral”, the Oral bioavailability result is “poor oral bioavailability”. The Solubility entry was “highly soluble” in data set [1] (in alcohol and lipids); “poorly soluble” in data set [1] (in water).
